# In US8664257B2, “Oxygen-substituted 3-heteroaroylamino-propionic acid derivatives and their use as pharmaceuticals” (Sanofi, priority 2010, dated 2014):
# pIC50: −log10 of the molar value.
# Biological target: T1, Recombinant human cathepsin A (Homo sapiens, UniProt P10619)
# T1 construct: Recombinant human cathepsin A (residues 29-480, with a C-terminal 10-His tag); 10-His (C); purchased R&D Systems 1049-SE
# T1 sequence (P10619 29-312 limits assumed): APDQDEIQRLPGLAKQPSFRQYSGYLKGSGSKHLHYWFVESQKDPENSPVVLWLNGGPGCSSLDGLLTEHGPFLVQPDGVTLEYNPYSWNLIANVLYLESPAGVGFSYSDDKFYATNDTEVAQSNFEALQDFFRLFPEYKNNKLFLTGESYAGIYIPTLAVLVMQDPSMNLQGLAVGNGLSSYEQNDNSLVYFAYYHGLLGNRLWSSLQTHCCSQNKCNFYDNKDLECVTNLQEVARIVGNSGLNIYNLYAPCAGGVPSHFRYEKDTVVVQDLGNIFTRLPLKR
# T1 sequence (P10619 327-480 limits assumed): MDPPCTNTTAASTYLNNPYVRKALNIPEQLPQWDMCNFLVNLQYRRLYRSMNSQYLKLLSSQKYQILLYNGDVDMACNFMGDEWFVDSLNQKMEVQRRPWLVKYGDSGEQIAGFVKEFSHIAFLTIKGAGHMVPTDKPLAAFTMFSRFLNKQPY
# Test: Cathepsin A inhibitory activity
# Type: biochemical
# Settings: read-out: Activity (2): Cathepsin A inhibitory activity (IC50 class)
# Procedure, shortened: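 Read-out was microfluidic separation of cleaved vs. uncleaved Bodipy FL-bradykinin (2 μM), giving turnover, % inhibition and IC50. Compound and 833 ng/ml enzyme met for 15 min RT in pH 5.5 MES/DTT before substrate (15 min RT). The 29-480 His-tagged human enzyme was first activated by cathepsin L, then E-64 (10 μM).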
row,Structure (SMILES),pIC50
1,Cc1ccccc1[C@H](CC(=O)O)NC(=O)c1cc(OCC2CC2)n(-c2ccccc2F)n1 [Example 612],> 7.00
2,"Cc1ccccc1[C@H](CC(=O)O)NC(=O)c1cc(OC(=O)N2CCCC2)n(-c2ccccc2F)n1 [Example 613, Pyrrolidine-1-carboxylic acid 5-((S)-2-carboxy-1-o-tolyl-ethylcarbamoyl)-2-(2-fluoro-phenyl)-2H-pyrazol-3-yl ester]",> 7.00
3,Cc1ccccc1[C@H](CC(=O)O)NC(=O)c1cc(OC(=O)N(C)C)n(-c2ccccc2F)n1 [Example 614],> 7.00
4,Cc1ccccc1[C@H](CC(=O)O)NC(=O)c1cc(OCC(=O)N(C)C)n(-c2ccccc2F)n1 [Example 615],> 7.00
5,Cc1ccccc1[C@H](CC(=O)O)NC(=O)c1cc(OCC(=O)N2CCCC2)n(-c2ccccc2F)n1 [Example 616],> 7.00
6,COCCOc1cc(C(=O)N[C@@H](CC(=O)O)c2ccccc2C)nn1-c1ccccc1F [Example 617],> 7.00
7,Cc1ccccc1[C@H](CC(=O)O)NC(=O)c1cc(OC(=O)N2CCCCC2)n(-c2ccccc2F)n1 [Example 619],> 7.00
8,Cc1ccccc1[C@H](CC(=O)O)NC(=O)c1cc(OC(=O)N(C)c2ccccc2)n(-c2ccccc2F)n1 [Example 620],> 7.00
9,CCOc1cc(C(=O)N[C@@H](CC(=O)O)c2ccccc2C)nn1-c1ccccc1 [Example 621],> 7.00
10,Cc1ccccc1[C@H](CC(=O)O)NC(=O)c1cc(OCC2CC2)n(-c2ccccc2)n1 [Example 622],> 7.00
11,Cc1ccccc1[C@H](CC(=O)O)NC(=O)c1cc(OCc2ccccc2C(F)(F)F)n(-c2ccccc2F)n1 [Example 623],6.00 to 7.00
12,Cc1ccccc1[C@H](CC(=O)O)NC(=O)c1cc(OCc2cccc(C(F)(F)F)c2)n(-c2ccccc2F)n1 [Example 624],6.00 to 7.00
13,Cc1ccccc1[C@H](CC(=O)O)NC(=O)c1cc(OCCc2ccccc2)n(-c2ccccc2F)n1 [Example 625],> 7.00
14,Cc1ccccc1[C@H](CC(=O)O)NC(=O)c1cc(OC2CCCC2)n(-c2ccccc2F)n1 [Example 626],> 7.00
15,Cc1ccccc1[C@H](CC(=O)O)NC(=O)c1cc(OCC2CCOCC2)n(-c2ccccc2F)n1 [Example 627],> 7.00
16,Cc1ccccc1[C@H](CC(=O)O)NC(=O)c1cc(OCCc2c(C)noc2C)n(-c2ccccc2F)n1 [Example 628],> 7.00
17,Cc1ccccc1[C@H](CC(=O)O)NC(=O)c1cc(OCc2ccncc2)n(-c2ccccc2F)n1 [Example 629],> 7.00
18,Cc1ccccc1[C@H](CC(=O)O)NC(=O)c1cc(OC(C)C)n(-c2ccccc2F)n1 [Example 630],> 7.00
19,Cc1ccccc1[C@H](CC(=O)O)NC(=O)c1cc(OC2CCCCC2)n(-c2ccccc2F)n1 [Example 631],> 7.00
20,Cc1ccccc1[C@H](CC(=O)O)NC(=O)c1cc(OCC(C)(C)C)n(-c2ccccc2F)n1 [Example 632],> 7.00
21,Cc1ccccc1[C@H](CC(=O)O)NC(=O)c1cc(OCC2CC2)n(-c2c(F)cccc2F)n1 [Example 634],> 7.00
22,"Cc1ccccc1[C@H](CC(=O)O)NC(=O)c1cc(OCc2ccccc2C#N)n(-c2ccccc2F)n1 [Example 635, (S)-3-{[5-(2-Cyano-benzyloxy)-1-(2-fluoro-phenyl)-1H-pyrazole-3-carbonyl]-amino}-3-o-tolyl-propionic acid]",> 7.00

row,Structure (SMILES),pIC50
1,Cc1ccc([C@H](CC(=O)O)NC(=O)c2cc(OCC(C)(O)c3ccccc3)n(-c3ccccc3F)n2)cc1 (stereo partly shown) [Example 636],> 7.00
2,CCOCCOCCOc1cc(C(=O)N[C@@H](CC(=O)O)c2ccccc2C)nn1-c1ccccc1F [Example 637],> 7.00
3,Cc1ccccc1[C@H](CC(=O)O)NC(=O)c1cc(OCC2CCCCC2)n(-c2ccccc2F)n1 [Example 638],> 7.00
4,Cc1ccccc1[C@H](CC(=O)O)NC(=O)c1cc(OCCN2CCCC2=O)n(-c2ccccc2F)n1 [Example 639],> 7.00
5,Cc1ccccc1[C@H](CC(=O)O)NC(=O)c1cc(OCc2ccccn2)n(-c2ccccc2F)n1 [Example 640],> 7.00
6,Cc1ccccc1[C@H](CC(=O)O)NC(=O)c1cc(OCCCF)n(-c2ccccc2F)n1 [Example 641],> 7.00
7,Cc1ccccc1[C@H](CC(=O)O)NC(=O)c1cc(OCC2CCCO2)n(-c2ccccc2F)n1 (stereo partly shown) [Example 642],> 7.00
8,Cc1cc(COc2cc(C(=O)N[C@@H](CC(=O)O)c3ccccc3C)nn2-c2ccccc2F)on1 [Example 643],> 7.00
9,Cc1ccccc1[C@H](CC(=O)O)NC(=O)c1cc(OCc2c(F)cccc2F)n(-c2ccccc2F)n1 [Example 644],> 7.00
10,Cc1ccccc1[C@H](CC(=O)O)NC(=O)c1cc(OCC2CC2(F)F)n(-c2ccccc2F)n1 (stereo partly shown) [Example 645],> 7.00
11,Cc1nc(COc2cc(C(=O)N[C@@H](CC(=O)O)c3ccccc3C)nn2-c2ccccc2F)cs1 [Example 646],> 7.00
12,Cc1ccccc1[C@H](CC(=O)O)NC(=O)c1cc(OCc2ccon2)n(-c2ccccc2F)n1 [Example 647],> 7.00
13,Cc1ccccc1[C@H](CC(=O)O)NC(=O)c1cc(OC2CCC2)n(-c2ccccc2F)n1 [Example 648],> 7.00
14,Cc1ccccc1[C@H](CC(=O)O)NC(=O)c1cc(OCC2CCC2)n(-c2ccccc2F)n1 [Example 649],> 7.00
15,Cc1ccccc1[C@H](CC(=O)O)NC(=O)c1cc(OCC2CCOC2)n(-c2ccccc2F)n1 (stereo partly shown) [Example 650],> 7.00
16,Cc1ccccc1[C@H](CC(=O)O)NC(=O)c1cc(OCc2ccccc2)n(-c2ccccc2F)n1 [Example 651],> 7.00
17,Cc1ccccc1[C@H](CC(=O)O)NC(=O)c1cc(OC[C@H]2CCC(=O)N2)n(-c2ccccc2F)n1 [Example 652],> 7.00
18,Cc1ccccc1[C@H](CC(=O)O)NC(=O)c1cc(OCC2CCCCO2)n(-c2ccccc2F)n1 (stereo partly shown) [Example 653],> 7.00
19,Cc1ccccc1[C@H](CC(=O)O)NC(=O)c1cc(OC[C@@H]2CCC(=O)N2)n(-c2ccccc2F)n1 [Example 654],> 7.00
20,COc1cccc(COc2cc(C(=O)N[C@@H](CC(=O)O)c3ccccc3C)nn2-c2ccccc2F)c1 [Example 655],> 7.00
21,Cc1cc(COc2cc(C(=O)N[C@@H](CC(=O)O)c3ccccc3C)nn2-c2ccccc2F)no1 [Example 657],> 7.00

# Next, values leading:
row,pIC50,Structure (SMILES)
1,> 7.00,Cc1ccccc1[C@H](CC(=O)O)NC(=O)c1cc(OCc2ccno2)n(-c2ccccc2F)n1 [Example 658]
2,> 7.00,Cc1ccccc1[C@H](CC(=O)O)NC(=O)c1cc(OCCC(C)(C)C)n(-c2ccccc2F)n1 [Example 659]
3,> 7.00,CCCCCCOc1cc(C(=O)N[C@@H](CC(=O)O)c2ccccc2C)nn1-c1ccccc1F [Example 660]
4,> 7.00,CCOc1cc(C(=O)N[C@@H](CC(=O)O)c2ccccc2C)nn1-c1ccccc1F [Example 662]
5,> 7.00,Cc1ccccc1[C@H](CC(=O)O)NC(=O)c1cc(OCC2(C)COC2)n(-c2ccccc2F)n1 [Example 663]
6,> 7.00,COc1cc(C(=O)NC(CC(=O)O)c2cccc(F)c2C)nn1-c1ccccc1F (stereo not shown) [Example 664]
7,> 7.00,COc1cc(C(=O)N[C@@H](CC(=O)O)c2ccccc2)nn1-c1ccccc1F [Example 665]
8,> 7.00,COc1cc(C(=O)NC(CC(=O)O)c2ccc(C)cc2C)nn1-c1ccccc1F (stereo not shown) [Example 666]
9,6.00 to 7.00,COc1ccccc1[C@H](CC(=O)O)NC(=O)c1cc(OC)n(-c2ccccc2F)n1 [Example 667]
10,6.00 to 7.00,COc1cc(C(=O)N[C@@H](CC(=O)O)c2ccc(C#N)cc2)nn1-c1ccccc1F [Example 668]
11,6.00 to 7.00,COc1cccc([C@H](CC(=O)O)NC(=O)c2cc(OC)n(-c3ccccc3F)n2)c1 [Example 669]
12,> 7.00,COc1cc(C(=O)N[C@@H](CC(=O)O)c2cccc(C)c2)nn1-c1ccccc1F [Example 670]
13,> 7.00,COc1cc(C(=O)N[C@@H](CC(=O)O)c2ccc(Cl)cc2)nn1-c1ccccc1F [Example 671]
14,> 7.00,"COc1ccc(C(CC(=O)O)NC(=O)c2cc(OC)n(-c3ccccc3F)n2)c(C)c1 (stereo not shown) [Example 672, 3-{[1-(2-Fluoro-phenyl)-5-methoxy-1H-pyrazole-3-carbonyl]-amino}-3-(4-methoxy-2-methyl-phenyl)-propionic acid]"
15,> 7.00,COc1cc(C(=O)N[C@@H](CC(=O)O)c2ccc(Cl)cc2Cl)nn1-c1ccccc1F [Example 673]
16,> 7.00,COc1cc(C(=O)N[C@@H](CC(=O)O)c2ccc(C(F)(F)F)cc2)nn1-c1ccccc1F [Example 674]
17,> 7.00,COc1cc(C(=O)N[C@@H](CC(=O)O)c2ccc(C)cc2)nn1-c1ccccc1F [Example 675]
18,> 7.00,COc1cc(C(=O)N[C@@H](CC(=O)O)c2ccccc2Cl)nn1-c1ccccc1F [Example 676]
19,> 7.00,COc1cc(C(=O)NC(CC(=O)O)c2ccc(F)cc2C)nn1-c1ccccc1F (stereo not shown) [Example 677]
20,6.00 to 7.00,COc1cc(C(=O)NC(CC(=O)O)c2ccc(F)cc2)nn1-c1ccccc1F (stereo not shown) [Example 678]
21,6.00 to 7.00,COc1cc(C(=O)N[C@@H](CC(=O)O)c2ccccc2F)nn1-c1ccccc1F [Example 679]
